{
  "source": "patent US20240246964A1",
  "about": "(Arbutus Biopharma Corporation, priority 2021, published 2024)",
  "data": [
    {"molecular_target": "human PD-L1 (Homo sapiens (Human), UniProt Q9NZQ7)", "sequence (Q9NZQ7 19-290)": "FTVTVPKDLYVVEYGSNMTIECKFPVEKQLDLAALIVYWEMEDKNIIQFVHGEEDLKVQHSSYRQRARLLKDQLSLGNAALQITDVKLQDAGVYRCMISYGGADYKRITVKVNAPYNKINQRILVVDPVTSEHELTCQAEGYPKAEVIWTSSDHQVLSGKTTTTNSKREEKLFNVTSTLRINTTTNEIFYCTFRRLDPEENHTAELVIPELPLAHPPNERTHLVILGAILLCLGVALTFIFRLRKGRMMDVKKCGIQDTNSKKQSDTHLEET", "assay": "T cell activation luciferase reporter cell culture system (T Cell Activation Assay)", "type": "cell-based", "details": "luciferase reporter assay; PD-L1 aAPC/CHO-K1 cells with PD-1 effector Jurkat T cells", "units": {"EC50": "nM"}, "values": [
      {"compound": "COc1cc(-c2nccc(-c3cccc(-c4ccc(CN5CC6(C5)CN(C(C)=O)C6)c(OC)n4)c3Cl)c2Cl)cc2c1CN(CCCF)CC2", "note": "[Example 249, 1-(6-((6-(2-Chloro-3-(3-chloro-2-(2-(3-fluoropropyl)-8-methoxy-1,2,3,4-tetrahydroisoquinolin-6-yl)pyridin-4-yl)phenyl)-2-methoxypyridin-3-yl)methyl)-2,6-diazaspiro[3.3]heptan-2-yl)ethan-1-one]", "EC50": 81.7},
      {"compound": "COc1cc(-c2nccc(-c3cccc(-c4ccc(CN[C@H]5CC[C@H](O)CC5)c(OC)n4)c3C(F)(F)F)c2Cl)ccc1CN[C@H]1CC[C@H](O)CC1", "note": "[Example 588, (1r,4r)-4-(((6-(3-(3-Chloro-2-(4-((((1r,4r)-4-hydroxycyclohexyl)amino)methyl)-3-methoxyphenyl)pyridin-4-yl)-2-(trifluoromethyl)phenyl)-2-methoxypyridin-3-yl)methyl)amino)cyclohexan-1-ol]", "EC50": "≥ 10000"},
      {"compound": "COCCC(=O)N1CCC(NCc2ccc(-c3cccc(-c4ccnc(-c5ccc(CNC6CCN(C(C)=O)CC6)c(OC)c5)c4Cl)c3Cl)nc2OC)CC1", "note": "[Example 607, 1-(4-(((6-(3-(2-(4-(((1-Acetylpiperidin-4-yl)amino)methyl)-3-methoxyphenyl)-3-chloropyridin-4-yl)-2-chlorophenyl)-2-methoxypyridin-3-yl)methyl)amino)piperidin-1-yl)-3-methoxypropan-1-one]", "EC50": 18.3},
      {"compound": "COc1cc(-c2nccc(-c3cccc(-c4ccc(CNC5CCN(C(=O)C6CCC6)CC5)c(OC)n4)c3Cl)c2Cl)ccc1CNC1CCN(C(=O)C2CCC2)CC1", "note": "[Example 352, (4-(((6-(2-Chloro-3-(3-chloro-2-(4-(((1-(cyclobutanecarbonyl)piperidin-4-yl)amino)methyl)-3-methoxyphenyl)pyridin-4-yl)phenyl)-2-methoxypyridin-3-yl)methyl)amino)piperidin-1-yl)(cyclobutyl)methanone]", "EC50": 134},
      {"compound": "COc1cc(-c2nccc(-c3cccc(-c4ccc(CN5CCOCC5)c(OC)n4)c3Cl)c2Cl)ccc1CN1CCOCC1", "note": "[Example 411, 4-((6-(2-Chloro-3-(3-chloro-2-(3-methoxy-4-(morpholinomethyl)phenyl)pyridin-4-yl)phenyl)-2-methoxypyridin-3-yl)methyl)morpholine]", "EC50": "≥ 10000"},
      {"compound": "COc1cc(-c2nccc(-c3cccc(-c4ccc(CNCCO)c(OC)n4)c3Cl)c2Cl)cc2c1CN(CCCF)CC2", "note": "[Cmpd 84, 2-(((6-(2-chloro-3-(3-chloro-2-(2-(3-fluoropropyl)-8-methoxy-1,2,3,4-tetrahydroisoquinolin-6-yl)pyridin-4-yl)phenyl)-2-methoxypyridin-3-yl)methyl)amino)ethan-1-ol]", "EC50": 71},
      {"compound": "COc1cc(-c2nccc(-c3cccc(-c4ccc(CNC5CCN(C(C)=O)CC5)c(OC)n4)c3Cl)c2Cl)ccc1CN1CCC[C@H](O)C1", "note": "[Example 507, (S)-1-(4-(((6-(2-Chloro-3-(3-chloro-2-(4-((3-hydroxypiperidin-1-yl)methyl)-3-methoxyphenyl)pyridin-4-yl)phenyl)-2-methoxypyridin-3-yl)methyl)amino)piperidin-1-yl)ethan-1-one]", "EC50": 45.2},
      {"compound": "COc1cc(-c2ncnc(-c3cccc(-c4ccc(CNC[C@@H]5CCC(=O)N5)c(OC)n4)c3Cl)c2C)ccc1CNC[C@@H]1CCC(=O)N1", "note": "[Example 523, (S)-5-((((6-(2-Chloro-3-(6-(3-methoxy-4-(((((S)-5-oxopyrrolidin-2-yl)methyl)amino)methyl)phenyl)-5-methylpyrimidin-4-yl)phenyl)-2-methoxypyridin-3-yl)methyl)amino)methyl)pyrrolidin-2-one]", "EC50": 92.4},
      {"compound": "COCC(=O)N1CCC(NCc2ccc(-c3cccc(-c4ccnc(-c5ccc(CN6CCC(O)CC6)c(OC)c5)c4Cl)c3Cl)nc2OC)CC1", "note": "[Example 510, 1-(4-(((6-(2-Chloro-3-(3-chloro-2-(4-((4-hydroxypiperidin-1-yl)methyl)-3-methoxyphenyl)pyridin-4-yl)phenyl)-2-methoxypyridin-3-yl)methyl)amino)piperidin-1-yl)-2-methoxyethan-1-one]", "EC50": 27},
      {"compound": "COc1cc(-c2nccc(-c3cccc(-c4ccc(CN5CCC(NC(C)=O)CC5)c(OC)n4)c3Cl)c2C)ccc1CN1CCC(NC(C)=O)CC1", "note": "[Example 466, N-(1-((6-(3-(2-(4-((4-Acetamidopiperidin-1-yl)methyl)-3-methoxyphenyl)-3-methylpyridin-4-yl)-2-chlorophenyl)-2-methoxypyridin-3-yl)methyl)piperidin-4-yl)acetamide]", "EC50": "≥ 10000"},
      {"compound": "COc1cc(-c2nccc(-c3cccc(-c4ccc(CN[C@H]5CC[C@@H](O)CC5)c(OC)n4)c3Cl)c2Cl)ccc1CN1CC2(CNC(=O)C2)C1", "note": "[Example 516, 2-(4-(3-Chloro-4-(2-chloro-3-(5-((((1s,4s)-4-hydroxycyclohexyl)amino)-methyl)-6-methoxypyridin-2-yl)phenyl)pyridin-2-yl)-2-methoxybenzyl)-2,6-diazaspiro[3.4]octan-7-one]", "EC50": 50.4},
      {"compound": "COc1nc(-c2cccc(-c3ccnc(-c4ccc(CN5CC6(C5)CN(C(C)=O)C6)c(OC(F)F)c4)c3Cl)c2Cl)ccc1CNC1CCN(C(C)=O)CC1", "note": "[Example 664, 1-(4-(((6-(3-(2-(4-((6-Acetyl-2,6-diazaspiro[3.3]heptan-2-yl)methyl)-3-(difluoromethoxy)phenyl)-3-chloropyridin-4-yl)-2-chlorophenyl)-2-methoxypyridin-3-yl)methyl)amino)piperidin-1-yl)ethan-1-one]", "EC50": 32.4},
      {"compound": "COc1cc(-c2nccc(-c3cccc(-c4ccc(CN5CC6(COC6)C5)c(OC)n4)c3Cl)c2Cl)ccc1CN1CC2(COC2)C1", "note": "[Example 387, 6-((6-(3-(2-(4-((2-Oxa-6-azaspiro[3.3]heptan-6-yl)methyl)-3-methoxyphenyl)-3-chloropyridin-4-yl)-2-chlorophenyl)-2-methoxypyridin-3-yl)methyl)-2-oxa-6-azaspiro[3.3]heptane]", "EC50": 8.22},
      {"compound": "COc1cc(-c2nccc(-c3cccc(-c4ccc(CNC5CCN(C(C)=O)CC5)c(OC)n4)c3Cl)c2Cl)ccc1CNCCC(=O)O", "note": "[Example 390, 3-((4-(4-(3-(5-(((1-acetylpiperidin-4-yl)amino)methyl)-6-methoxypyridin-2-yl)-2-chlorophenyl)-3-chloropyridin-2-yl)-2-methoxybenzyl)amino)propanoic acid]", "EC50": 56.6},
      {"compound": "COc1nc(-c2cccc(-c3ccnc(-c4ccc(CNC[C@@H]5CCC(=O)N5)c(OC(F)F)c4)c3Cl)c2Cl)ccc1CNC[C@@H]1CCC(=O)N1", "note": "[Example 617, (S)-5-((((6-(2-Chloro-3-(3-chloro-2-(3-(difluoromethoxy)-4-(((((S)-5-oxopyrrolidin-2-yl)methyl)amino)methyl)phenyl)pyridin-4-yl)phenyl)-2-methoxypyridin-3-yl)methyl)amino)methyl)pyrrolidin-2-one]", "EC50": 38.9},
      {"compound": "COc1nc(-c2cccc(-c3ccnc(-c4ccc(CNC5CCN(C)C(=O)C5)c(OC(F)F)c4)c3Cl)c2Cl)ccc1CNC1CCN(C)C(=O)C1", "note": "(racemic) [Example 619, 4-(((6-(2-Chloro-3-(3-chloro-2-(3-(difluoromethoxy)-4-(((1-methyl-2-oxopiperidin-4-yl)amino)methyl)phenyl)pyridin-4-yl)phenyl)-2-methoxypyridin-3-yl)methyl)amino)-1-methylpiperidin-2-one]", "EC50": 66.9},
      {"compound": "COc1cc(-c2nccc(-c3cccc(-c4cc(Cl)c(CNC[C@@H]5CCC(=O)N5)c(OC)n4)c3Cl)c2Cl)ccc1CNCC(=O)OC(C)C", "note": "[Cmpd 123, isopropyl (S)-(4-(3-chloro-4-(2-chloro-3-(4-chloro-6-methoxy-5-((((5-oxopyrrolidin-2-yl)methyl)amino)methyl)pyridin-2-yl)phenyl)pyridin-2-yl)-2-methoxybenzyl)glycinate]", "EC50": 129},
      {"compound": "COc1cc(-c2nccc(-c3cccc(-c4ccc(CN5CC6(CNC(=O)C6)C5)c(OC)n4)c3Cl)c2C#N)ccc1CN1CC2(CNC(=O)C2)C1", "note": "[Example 433, 4-(2-Chloro-3-(6-methoxy-5-((7-oxo-2,6-diazaspiro[3.4]octan-2-yl)methyl)pyridin-2-yl)phenyl)-2-(3-methoxy-4-((7-oxo-2,6-diazaspiro[3.4]octan-2-yl)methyl)phenyl)nicotinonitrile]", "EC50": 39.9},
      {"compound": "COc1nc(-c2ccnc(-c3cccc4c3CC[C@@H]4Oc3nc(OC)c(CN4CC5(CNC(=O)C5)C4)cc3C(F)(F)F)c2Cl)ccc1CN1CC2(CNC(=O)C2)C1", "note": "[Example 336, (S)-2-((3′-Chloro-6-methoxy-2′-(1-((6-methoxy-5-((7-oxo-2,6-diazaspiro[3.4]octan-2-yl)methyl)-3-(trifluoromethyl)pyridin-2-yl)oxy)-2,3-dihydro-1H-inden-4-yl)-[2,4′-bipyridin]-5-yl)methyl)-2,6-diazaspiro[3.4]octan-7-one]", "EC50": 95.6},
      {"compound": "COc1cc(-c2nccc(-c3cccc(-c4ccc(CNC5CCN(C(C)=O)CC5)c(OC)n4)c3Cl)c2Cl)ccc1CNCC1(O)CC1", "note": "[Example 512, 1-(4-(((6-(2-Chloro-3-(3-chloro-2-(4-((((1-hydroxycyclopropyl)methyl)amino)methyl)-3-methoxyphenyl)pyridin-4-yl)phenyl)-2-methoxypyridin-3-yl)methyl)amino)piperidin-1-yl)ethan-1-one]", "EC50": 32.8},
      {"compound": "CNCc1ccc(-c2nccc(-c3cccc(-c4ccc(CNC5CCN(C(C)=O)CC5)c(OC)n4)c3Cl)c2Cl)cc1OC", "note": "[Example 240, 1-(4-(((6-(2-chloro-3-(3-chloro-2-(3-methoxy-4-((methylamino)methyl)phenyl)pyridin-4-yl)phenyl)-2-methoxypyridin-3-yl)methyl)amino)piperidin-1-yl)ethan-1-one]", "EC50": 29.1},
      {"compound": "COc1cc(-c2nccc(-c3cccc(-c4ccc(CN5CC6(C5)CN(C(C)=O)C6)c(OC)n4)c3Cl)c2Cl)ccc1CN1CCC(NC(C)=O)CC1", "note": "[Example 402, N-(1-(4-(4-(3-(5-((6-acetyl-2,6-diazaspiro[3.3]heptan-2-yl)methyl)-6-methoxypyridin-2-yl)-2-chlorophenyl)-3-chloropyridin-2-yl)-2-methoxybenzyl)piperidin-4-yl)acetamide]", "EC50": 44.6}
    ]}
  ]
}
